According to patent US20190015421A1, “Biomarkers for Treating Cancer with Apilimod” (LAM Therapeutics, Inc., priority 2016, published 2019):

Tests used:
A-704 = test: apilimod 5 day assay in clear cell RCC line A-704; assay type: cell-based; conditions: Homo sapiens, A704, 120 h, A-704 clear cell RCC line, VHL mutant, read-out: EC50 (nM) (avg, n = 2)
KMRC-1 = test: apilimod 5 day assay in clear cell RCC line KMRC-1; assay type: cell-based; conditions: 120 h, KMRC-1 clear cell RCC line, VHL mutant, read-out: EC50 (nM) (avg, n = 2)
[1] = system: clear cell RCC cell lines (n=5); test: anti-proliferative activity versus standard of care drugs, 5 day assays; assay type: cell-based; conditions: versus axitinib, sorafenib, pazopanib, sunitinib and rapamycin
From the text: FIG. 8: anti-proliferative activity of apilimod versus standard of care drugs in clear cell RCC cell lines (n=5) in 5 day assays. *Values denote the geometric mean.

[2] = active Crohn's disease; Sands et al. 2010; cited from earlier work
Caki-2 = test: apilimod 5 day assay in clear cell RCC line Caki-2; assay type: cell-based; conditions: Homo sapiens, 120 h, Caki-2 clear cell RCC line, VHL mutant, read-out: EC50 (nM) (avg, n = 2)
RCC-ER = test: apilimod 5 day assay in clear cell RCC line RCC-ER; assay type: cell-based; conditions: 120 h, VHL mutant, read-out: EC50 (nM) (avg, n = 2)
From the text: FIG. 7B: example dose response of renal cell line RCC-ER and normal colon cell line CCD841CoN to apilimod in a 5 day assay.

769-P = test: apilimod 5 day assay in clear cell RCC line 769-P; assay type: cell-based; conditions: Homo sapiens, 120 h, 769-P clear cell RCC line, VHL mutant, read-out: EC50 (nM) (avg, n = 2)
RCC-JF = test: apilimod 5 day assay in clear cell RCC line RCC-JF; assay type: cell-based; conditions: 120 h, VHL mutant, read-out: EC50 (nM) (avg, n = 2)
RCC-MF = test: apilimod 5 day assay in clear cell RCC line RCC-MF; assay type: cell-based; conditions: 120 h, read-out: EC50 (nM) (avg, n = 2)
A498 = test: apilimod 5 day assay in clear cell RCC line A498; assay type: cell-based; conditions: Homo sapiens, 120 h, VHL mutant, read-out: EC50 (nM) (avg, n = 2)
TSC null cells = conditions: mTOR pathway constitutively active; previously shown; cited from earlier work
RCC-JW = test: apilimod 5 day assay in clear cell RCC line RCC-JW; assay type: cell-based; conditions: 120 h, read-out: EC50 (nM) (avg, n = 2)
[3] = system: CA46 (TFEB-deficient B-NHL); test: apilimod dose response in CA46 pools over-expressing GFP control or TFEB; assay type: cell-based; conditions: CA46 pools over-expressing TFEB vs GFP control, 10-point dose response, 72 hrs
Method: FIG. 6: stable CA46 (TFEB-deficient B-NHL) pools over-expressing either GFP control or TFEB were treated with 10-point apilimod dose response for 72 hrs.
To further explore the role of TFEB in the cellular response to apilimod, the expression levels of TFEB across different cancer cell lines from the Cancer Cell Line Encyclopedia (CCLE) database (Barretina et al., 2012) were extracted and examined to determine whether there was a correlation between TFEB expression and the sensitivity of the cell line to apilimod. […] To test whether the increased TFEB expression contributes to the apilimod sensitivity observed in B-NHL, we overexpressed TFEB in the TFEB-deficient B-NHL cell line CA46.

[4] = system: SU-DHL-10 and WSU-DLCL2 B-NHL lines; test: global gene expression and gene ontology analysis; assay type: cell-based; conditions: SU-DHL-10 and WSU-DLCL2 after apilimod treatment
From the text: FIG. 1: heatmap representation of gene expression changes in SU-DHL-10 and WSU-DLCL2 B-NHL lines upon apilimod treatment.
(§1) To further understand apilimod's cellular mechanism of action, we performed a global gene expression analysis of the changes occurring after apilimod treatment of two non-Hodgkins B cell lymphoma (B-NHL) tumor cell lines, SU-DHL-10 and WSU-DLCL2. […] We next performed a gene ontology analysis. […] We next used LysoTracker staining to examine the acidified compartment of the cells.

786-0 = test: apilimod 5 day assay in clear cell RCC line 786-0; assay type: cell-based; conditions: Homo sapiens, 120 h, 786-0 clear cell RCC line, VHL mutant, read-out: EC50 (nM) (avg, n = 2)
Caki-1 = test: apilimod 5 day assay in clear cell RCC line Caki-1; assay type: cell-based; conditions: Homo sapiens, 120 h, Caki-1 clear cell RCC line, VHL WT, read-out: EC50 (nM) (avg, n = 2)
[5] = system: RCC having a VHL mutation; test: apilimod cytotoxicity in RCC lines by VHL status; assay type: cell-based; conditions: clear cell RCC lines of Table 2, 5 day assay
ACHN = test: apilimod 5 day assay in clear cell RCC line ACHN; assay type: cell-based; conditions: Homo sapiens, 120 h, VHL WT, read-out: EC50 (nM) (avg, n = 2)
TFEB = TFEB phosphorylation status and subcellular localization by immunoblotting; assay type: cell-based; conditions: SU-DHL-6 cells, apilimod 63 nM, 2 hr
Method: FIG. 4: nuclear and cytoplasmic levels of TFEB protein assayed by immunoblotting in SU-DHL-6 cells treated with apilimod (63 nM) for 2 hr.
TFEB is a master regulator of lysosomal gene expression and is activated by dephosphorylation followed by nuclear translocation (Roczniak-Ferguson et al., 2012; Settembre et al., 2012). Accordingly, we next looked at TFEB phosphorylation status and subcellular localization following apilimod treatment.

RCC-FG2 = test: apilimod 5 day assay in clear cell RCC line RCC-FG2; assay type: cell-based; conditions: 120 h, VHL mutant, read-out: EC50 (nM) (avg, n = 2)
SU-DHL-6 and SU-DHL-10 = test: LysoTracker staining of the acidified compartment; assay type: cell-based; conditions: 200 nM apilimod, 24 and 48 hrs, compared to DMSO
Method: FIG. 3: LysoTracker staining in SU-DHL-6 and SU-DHL-10 for 24 and 48 hrs after treatment with 200 nM (blue) apilimod compared to DMSO treated control (red).
as §1

KMRC-3 = test: apilimod 5 day assay in clear cell RCC line KMRC-3; assay type: cell-based; conditions: 120 h, KMRC-3 clear cell RCC line, VHL mutant, read-out: EC50 (nM) (avg, n = 2)
[6] = system: synovial IL-12 and IL-23 expression; conditions: patients with rheumatoid arthritis; Krauz et al. 2012; cited from earlier work

EC50 (A-704): 11 nM
EC50 (KMRC-1): 4 nM
EC50 (Caki-2): 3360 nM
EC50 (RCC-ER): 9 nM
EC50 (769-P): 44 nM
EC50 (RCC-JF): 60 nM
EC50 (RCC-MF): 8 nM
EC50 (A498): 84000 nM
EC50 (RCC-JW): 27 nM
EC50 (786-0): 71 nM
EC50 (Caki-1): 2280 nM
EC50 (ACHN): 9040 nM
EC50 (RCC-FG2): 32 nM
EC50 (KMRC-3): 39 nM
Compound: Cc1cccc(/C=N/Nc2cc(N3CCOCC3)nc(OCCc3ccccn3)n2)c1 [apilimod]
activity against clear cell RCCs relative to standard of care treatments [1]: superior activity
efficacy over placebo [2]: did not demonstrate efficacy over placebo
tolerability [2]: well tolerated
cytotoxicity in TSC null cells (TSC null cells): highly cytotoxic
enhancement of apilimod sensitivity by TFEB over-expression [3]: greater than 50 fold
gene ontology of genes induced by apilimod [4]: clear enrichment of lysosomal genes
cytotoxicity by VHL status [5]: preferentially cytotoxic in RCC having a VHL mutation
TFEB dephosphorylation and nuclear translocation (TFEB): induces TFEB dephosphorylation and nuclear translocation
acidified compartment (LysoTracker staining) (SU-DHL-6 and SU-DHL-10): expansion of the acidified compartment
effect on synovial IL-12 and IL-23 expression [6]: failed to alter synovial IL-12 and IL-23 expression
